Experimental findings from patent publication US20130310374A1, “Substituted Imidazoquinoline Derivatives” (PIRAMAL ENTERPRISES LIMITED`, priority 2010, published 2013) are described below.

One series deals with LN229. Description: Cytotoxicity propidium iodide assay, LN229. The class given is cell-based. To be noted: LN229 (glioblastoma), 48 hours treatment, read-out: IC50 Values in μM, C5a. The procedure: (§1) The assay was designed as in the reference, Anticancer Drugs, 2002, 13, 1-8, the disclosure of which is incorporated herein by reference for the teaching of the assay.
(§2) Cells from cell lines (ATCC) as mentioned in the table given below were seeded at a density of 3000 cells/well in a white opaque 96-well plate. Following incubation at 37° C./5% CO2 for a period of 18-24 hours, the cells were treated with various concentrations (stock solution was prepared in DMSO and subsequent dilutions were made in media as per ATCC guidelines) of the compounds of the present invention for a period of 48 hours. At the end of treatment, the culture medium was discarded, the cells were washed with 1×PBS and 200 μL of […] propidium iodide was added to each well. The plates were frozen at 70° C. overnight. For analysis, the plates were warmed to RT, allowed to thaw and were read in PoleStar fluorimeter with the fluorescence setting. The percentage of viable cells in the non-treated set of wells was considered to be 100 and the percentage viability following treatment was calculated accordingly. IC50 values were calculated from graphs plotted using these percentages. IC50 values for certain compounds of present invention are depicted in Table 1 and % Inhibition of certain compounds of present invention are depicted in Table 2.

The test system of the next series is KU812/SR. The series is described as follows: Cytotoxicity propidium iodide assay, KU812/SR. The series is classed as cell-based. To be noted: KU812/SR (CML), 48 hours treatment, read-out: IC50 Values in μM, C6c. On the procedure:
as §1, §2

The subject of the next series is LN18. Description: Cytotoxicity propidium iodide assay, LN18. The class given is cell-based. As to conditions: LN18 (glioblastoma), 48 hours treatment, read-out: IC50 Values in μM, C5b. The procedure: as §1, §2
In a further series the test system is KCL22/SR. Description: Cytotoxicity propidium iodide assay, KCL22/SR. The series is classed as cell-based. To be noted: KCL22/SR (CML), 48 hours treatment, read-out: IC50 Values in μM, C6e. On the procedure:
as §1, §2

A further series has as its system K562. The series is described as follows: Cytotoxicity propidium iodide assay, K562. The series is classed as cell-based. To be noted: K562 (CML), 48 hours treatment, read-out: IC50 Values in μM, C6a. On the procedure: as §1, §2
For another series, the system named is A2780. The series is described as follows: Cytotoxicity propidium iodide assay, A2780. The class given is cell-based. As to conditions: Homo sapiens; A2780, 1 μM, 48 hours; read-out: % Inhibition at 1 μM, C1a. The procedure: as §1, §2
The test system of the next series is U 87 MG. Description: Cytotoxicity propidium iodide assay, U 87 MG. The class given is cell-based. As to conditions: Homo sapiens; U 87 MG (glioblastoma), 48 hours treatment; read-out: IC50 Values in μM, C5c. The procedure:
as §1
as §2, with “The plates were frozen at 70° C. overnight.” left out

Another series relates to BT 549. Description: Cytotoxicity propidium iodide assay, BT 549. The class given is cell-based. To be noted: Homo sapiens; BT 549 (breast), 48 hours treatment; read-out: IC50 Values in μM, C3c. The procedure:
as §1, §2

The test system of another series is PC3. The series is described as follows: Cytotoxicity propidium iodide assay, PC3. The class given is cell-based, human. To be noted: Homo sapiens, PC-3; PC3, 1 μM, 48 hours; read-out: % Inhibition at 1 μM, C2a. On the procedure:
as §1, §2

Another series concerns TNF-α. The series is described as follows: Anti-CD3 mAb and anti-CD28 mAb-induced cytokine production assay, TNF-α. The series is classed as cell-based. As to conditions: Homo sapiens, hPBMC, anti-CD3/anti-CD28, 18 hours. The procedure:
(§3) Anti-CD3 mAb and Anti-CD28 mAb-Induced Cytokine Production Assay
(§4) Preparation of anti-CD3/anti-CD28 coated plates: 96 well plates were coated with goat anti-mouse IgG, Fc (Millipore) at a concentration of 16.5 μg/mL in coating buffer ([…] NaHCO3, 3.56 g Na2CO3, pH 9.5). Following overnight incubation at 4° C., the plates were washed and then incubated with anti-CD3 (3.5 μg/mL; R&D Systems) and anti-CD28 (35 ng/mL; R&D Systems) cocktail for 3 hours. Subsequently, the plates were washed, and used for hPBMC stimulation.
(§5) hPBMC stimulation: Peripheral blood was collected from normal healthy volunteers after informed consent. Peripheral blood mononuclear cells (hPBMC) were harvested using Ficoll-Hypaque density gradient centrifugation (1.077 g/mL; Sigma Aldrich). hPBMCs were resuspended in RPMI 1640 culture medium (Gibco BRL, Pasley, UK) containing 10% FCS, 100 U/mL penicillin (Sigma Chemical Co. St Louis, Mo.) and […] streptomycin (Sigma Chemical Co. St Louis, Mo.) at 1.25×10^6 cells/mL of assay medium. 2.5×10^5 hPBMCs were added per well of 96-well plate coated with or without anti-CD3/anti-CD28 mAbs. Simultaneously, 0.025 μM of compounds of the present invention or 0.5% DMSO (vehicle control) were added to appropriate wells. The cells were then incubated for 18 hours at 37° C., 5% CO2 following which supernatants were collected, stored at […] and assayed later for TNF-α, IL-6 and IFN-γ by ELISA (OptiEIA ELISA sets; BD Biosciences). In every experiment, each condition was run in triplicate wells. In all experiments, the toxicity of test compounds was ascertained, in parallel, using the MTS (3-(4,5-dimethylthiazol-2-yl)-5-(3-carboxymethoxyphenyl)-2-(4-sulfonyl)-2H-tetrazolium) assay as described in Am. J. Physiol. Cell Physiol., 2003, 285, C813-C822.

Series [1] has as its system IFN-γ. Description: Con-A-induced IFN-γ production from hPBMC. As to conditions: Homo sapiens, concanavalin A 1 μg/mL, 18 hours. The series is classed as cell-based. The procedure:
Con-A-Induced IFN-γ Production from hPBMC
(§6) Peripheral blood was collected from normal healthy volunteers after informed consent. Peripheral blood mononuclear cells (hPBMC) were harvested using Ficoll-Hypaque density gradient centrifugation (1.077 g/mL; Sigma Aldrich). hPBMCs were resuspended in RPMI 1640 culture medium (Gibco BRL, Pasley, UK) containing 10% FCS, 100 U/mL penicillin (Sigma Chemical Co. St Louis, Mo.) and […] streptomycin (Sigma Chemical Co. St Louis, Mo.) at 1×10^6 cells/mL. 1×10^5 hPBMCs/well were pre-treated with 0.025 μM of compounds of present invention or 0.5% DMSO (vehicle control) for 30 minutes at 37° C. Subsequently, these cells were stimulated with 1 μg/mL concanavalin A (Sigma Chemical Co., St. Louis, Mo.). Following 18 hours of incubation at 37° C., supernatants were collected and stored at −70° C. until assayed for human IFN-γ by ELISA as described by the manufacturer (OptiEIA ELISA sets, BD BioSciences). In every experiment, cyclosporin (1 μM) was used as a positive control for inhibiting induced IFN-γ production. In all experiments, the toxicity of test compounds was ascertained, in parallel, using the MTS (3-(4,5-dimethylthiazol-2-yl)-5-(3-carboxymethoxyphenyl)-2-(4-sulfonyl)-2H-tetrazolium) assay as described in Am. J. Physiol. Cell Physiol., 2003, 285, C813-C822.

A further series concerns IL-6. Description: Anti-CD3 mAb and anti-CD28 mAb-induced cytokine production assay, IL-6. The class given is cell-based. To be noted: Homo sapiens, hPBMC, anti-CD3/anti-CD28, 18 hours. On the procedure:
as §3, §4, §5

Series [2] relates to hPBMC. The series is described as follows: MTS toxicity assay in parallel to anti-CD3/anti-CD28 cytokine assay. The class given is cell-based, human. To be noted: anti-CD3/anti-CD28 experiment. The procedure: as §5
For orientation: Formazan colour is commonly taken as a measure of viable cells.

The subject of series [3] is IFN-γ. Description: Anti-CD3 mAb and anti-CD28 mAb-induced cytokine production assay, IFN-γ. The class given is cell-based. As to conditions: Homo sapiens, hPBMC, anti-CD3/anti-CD28, 18 hours. The procedure:
as §3, §4, §5

Series [4] concerns hPBMC. Description: MTS toxicity assay in parallel to Con-A-induced IFN-γ assay. The class given is cell-based, human. To be noted: Con-A experiment. On the procedure: as §6

Read-outs that look alike come from different tables or passages of the source.

Turning to “1-(6-Chloro-2,4′-bipyridin-3-yl)-3-methyl-8-(pyridin-3-yl)-1H-imidazo[4,5-c]quinolin-2(3H)-one [Example 72]”, the half-maximal inhibitory concentration (IC50) (commonly the point on the concentration scale where inhibition reaches its midpoint) in the series on LN229 came out at 0.44 µM; in the series on KU812/SR, 1.14 µM; with LN18, 0.992 µM; in the series on KCL22/SR, 0.23 µM; in the series on K562, 0.0144 µM.

Regarding `Cn1c(=O)n(-c2ccc(Cl)nc2Cl)c2c3cc(-c4cccnc4)ccc3ncc21` [Example 62, 1-(2,6-Dichloropyridin-3-yl)-3-methyl-8-(pyridin-3-yl)-1H-imidazo[4,5-c]quinolin-2(3H)-one], the 50% inhibitory concentration (IC50) came out at 1.03 µM in the series on LN229 (Homo sapiens, LN-229); 0.84 µM in the series on KU812/SR (Homo sapiens); 9.92 µM with U 87 MG; 1.5 µM in the series with BT 549; 1.08 µM in the series on LN18 (Homo sapiens, LN-18); 0.62 µM in the series on KCL22/SR (Homo sapiens, KCL-22). Besides, the IC50 in the series with K562 (Homo sapiens) amounted to 0.144 µM. The inhibition (in general, the relative decrease from the control value, in per cent) at 1 µM was 69% with A2780 and 28% in the series on PC3.

With `Cn1c(=O)n(-c2ccc(C(F)(F)F)nc2)c2c3cc(-c4ccc(F)nc4F)ccc3ncc21` [Example 57, 8-(2,6-Difluoropyridin-3-yl)-3-methyl-1-(6-(trifluoromethyl)pyridin-3-yl)-1H-imidazo [4,5-c]quinolin-2(3H)-one], the inhibition at 0.025 µM in the series with TNF-α was 80%; in the series on IFN-γ [1], 88%; in the series on IL-6, 94%; in the series with IFN-γ [3], 88%. Besides, the “% Toxicity at 0.025 μM” value in the series on hPBMC [2] and in the series on hPBMC [4] was 14% in each case.
